Source: US20260055066A1, “CRYSTALLINE FORM OF PYRIMIDINE-4-CARBOXAMIDE COMPOUND AND ORAL PHARMACEUTICAL FORMULATION CONTAINING SAME” (J2H BIOTECH INC., priority 2022, published 2026)
Like-named read-outs stand apart in the source and are kept apart here.

Assays:
[1] = Water solubility / BCS classification of the compound of chemical formula 1; format: physicochemical
[2] = Stability evaluation of the crystalline form of Example 1 (ICH long-term and accelerated storage, HPLC; PXRD); format: physicochemical; conditions: for Content / Total impurities: HPLC
Experimental: The stability of the crystalline solid of the compound of chemical formula 1 prepared by Example 1 was evaluated. According to the ICH guideline, the stability test was conducted under long-term storage (25±2° C., 60±5% RH) and accelerated (40±2° C., 75±5% RH) conditions. The analysis was performed using HPLC to evaluate the change in content and the occurrence of impurities, and the results are shown in Table 1 below.
For a BCS Class 2 substance such as the compound of chemical formula 1, it is very important that the crystalline form remains stable under storage conditions. The more insoluble a substance is, the greater the impact of changes in crystallinity on the quality of the final product is. The change in the crystalline form causes changes in hygroscopicity, stability, dissolution, etc.

[3] = Comparative pharmacokinetic test of the formulation in beagle dog, Experimental Example 8; format: in vivo; conditions: for AUC(0-t) / Cmax / Tmax / half-life / Vd/F / CL/F: beagle, dog, plasma; for Vd/F: read-out: Vz(terminal)/F; for CL/F: CL(inf)/F
Experimental: By applying the conditions of Preparation Example 10, tablets containing 25, 50, and 100 mg of the crystalline solid of chemical formula 1 as a pharmaceutical raw material were manufactured. An experiment was conducted to analyze the pharmacokinetic characteristics of the manufactured tablets after oral administration to a beagle dog.
The compound of chemical formula 1 was administered orally to a beagle dog as a single dose of 25, 50, and 100 mg tablets/head, orally as a single dose of 25 mg liquid/head, and intravenously as a single dose of 2 mg/kg. Blood samples were collected before (0) and 15, 30 min, 1, 1.5, 2, 4, 6, 8, 10, 16, and 24 hr after administration of the test substance to measure the blood concentration of the compound of chemical formula 1.
The preparation for single oral administration in liquid/head was prepared by homogeneously suspending 275 mg of the compound of chemical formula 1 in 220 ml of pre-prepared 2.5% HP-PCD (sterile water solution) to obtain 1.25 mg/ml. In addition, the preparation for single intravenous administration was prepared by dissolving 300 mg of the compound of chemical formula 1 in 150 ml of pre-prepared 10% HP-PCD (sterile water solution) to obtain 2 mg/ml.

[4] = accelerated 40±2°C, 75±5% RH, 1 months
[5] = accelerated 40±2°C, 75±5% RH, 3 months
[6] = accelerated 40±2°C, 75±5% RH, 6 months
[7] = accelerated 40±2°C, 75±5% RH, Initial
[8] = long-term storage 25±2°C, 60±5% RH, 1 months
[9] = long-term storage 25±2°C, 60±5% RH, 3 months
[10] = long-term storage 25±2°C, 60±5% RH, 6 months
[11] = long-term storage 25±2°C, 60±5% RH, 12 months
[12] = long-term storage 25±2°C, 60±5% RH, Initial
[13] = iv, 2 mg/kg, 2 mg/kg solution (iv), 10% HP-PCD, single dose, beagle dog plasma
[14] = po, 25 mg, 25 mg solution (po), per head, suspended in 2.5% HP-PCD, single dose, beagle dog plasma
[15] = po, 25 mg, 25 mg tablet (po), per head, single dose, beagle dog plasma
[16] = po, 50 mg, 50 mg tablet (po), per head, single dose, beagle dog plasma
[17] = po, 100 mg, 100 mg tablet (po), per head, single dose, beagle dog plasma

- solubility ([1]; water): ≤ 1 µg/mL
- Content [2, 4]: 99.6%
- Total impurities [2, 4]: 0.43%
- Content [2, 5]: 100.8%
- Total impurities [2, 5]: 0.44%
- Content [2, 6]: 100.0%
- Total impurities [2, 6]: 0.42%
- Content [2, 7]: 99.9%
- Total impurities [2, 7]: 0.34%
- Content [2, 8]: 99.5%
- Total impurities [2, 8]: 0.43%
- Content [2, 9]: 99.3%
- Total impurities [2, 9]: 0.41%
- Content [2, 10]: 100.5%
- Total impurities [2, 10]: 0.43%
- Content [2, 11]: 99.7%
- Total impurities [2, 11]: 0.45%
- Content [2, 12]: 99.9%
- Total impurities [2, 12]: 0.34%
- crystalline form (PXRD) of stored stability samples ([2]; stored 3, 6 and 12 months (12 months long-term only)): the crystalline form did not change
- CL(inf)/F ([3]; 2 mg/kg solution (iv), 10% HP-PCD, single dose, beagle dog plasma): 5.5 mL/min/kg
- BA ([3]; 25 mg solution (po), per head, single dose, beagle dog): 45.82 % F
- BA ([3]; 25 mg tablet (po), per head, single dose, beagle dog): 44.31 % F
- average absorption (AUClast) of the tablet administration group relative to the liquid administration group ([3]; 25 mg/head po, beagle dog): 96.7%
- BA ([3]; 50 mg tablet (po), per head, single dose, beagle dog): 35.37 % F
- BA ([3]; 100 mg tablet (po), per head, single dose, beagle dog): 25.40 % F
- AUC(0-t) [3, 13]: 6180 ng·h/mL
- Cmax [3, 13]: 1160 ng/mL
- Tmax [3, 13]: 0.25 h
- half-life [3, 13]: 4.07 h
- AUC(0-t) [3, 14]: 3370 ng·h/mL
- Cmax [3, 14]: 393 ng/mL
- Tmax [3, 14]: 1.5 h
- half-life [3, 14]: 6.32 h
- Vd/F [3, 14]: 58.5 L
- AUC(0-t) [3, 15]: 3260 ng·h/mL
- Cmax [3, 15]: 420 ng/mL
- Tmax [3, 15]: 2 h
- half-life [3, 15]: 4.42 h
- Vd/F [3, 15]: 49.4 L
- CL/F [3, 14]: 6.9 L/h
- CL/F [3, 15]: 8.04 L/h
- AUC(0-t) [3, 16]: 5210 ng·h/mL
- Cmax [3, 16]: 666 ng/mL
- Tmax [3, 16]: 2 h
- half-life [3, 16]: 5.29 h
- Vd/F [3, 16]: 79.3 L
- CL/F [3, 16]: 10.2 L/h
- AUC(0-t) [3, 17]: 7480 ng·h/mL
- Cmax [3, 17]: 899 ng/mL
- Tmax [3, 17]: 1.75 h
- half-life [3, 17]: 6.89 h
- Vd/F [3, 17]: 119 L
- CL/F [3, 17]: 12.8 L/h
Structure (SMILES): C[C@@H]1CN(c2ccc(S(C)(=O)=O)cc2F)CCN1c1nccc(C(=O)NC2C3CC4CC2CC(O)(C4)C3)n1 (stereo partly drawn) [chemical formula 1, 2-((R)-4-(2-fluoro-4-(methylsulfonyl)phenyl)-2-methylpiperazin-1-yl)-N-((1R,2s,3S,5S,7S)-5-hydroxyadamantan-2-yl)pyrimidine-4-carboxamide]
- Biopharmaceutics classification system (BCS) class [1]: Class 2 (high permeability, low solubility)
- solubility according to pH [1]: does not have the characteristic of improving solubility according to pH
